Test results published in patent US7090861B2, “Sustained release delivery systems for solutes” (Farrington Pharmaceuticals, LLC, priority 2000, dated 2006).
Like-named read-outs stand apart in the source and are kept apart here.

Assays:
[1] = Cumulative release of albumin from a controlled-release device; assay type: physicochemical
Procedure: Bovine serum albumin (MW 68,000) was dissolved in phosphate buffered saline and loaded into a device designed to deliver a loading dose. After an initial burst release, the rate becomes constant. Data are plotted as the cumulated delivery of albumin over time, measured as described for FIG. 5. Approximately 10 mg was delivered in 24 hours.

[2] = cited from earlier work

Bovine serum albumin: Bovine serum albumin (MW 68,000) in phosphate buffered saline, loaded into a device designed to deliver a loading dose
release kinetics of albumin ([1]; after an initial burst release): zero order rate release of albumin over a duration of 24 hours | cumulated delivery of albumin ([1]; in 24 hours, device designed to deliver a loading dose): Approximately 10 mg

[Ca+2] [calcium]
absorption, share of the total ([2]; ileum): 60% | absorption, share of the total ([2]; jejunum): 20% | absorption, share of the total ([2]; stomach): < 2%
